We go through three compounds from patent US9126938B2, “Phosphatidylcholine transfer protein inhibitors” (The Brigham and Women's Hospital, Inc., priority 2009, dated 2015).

Test [1] addresses T1, purified recombinant PC-TP (Homo sapiens, UniProt Q9UKL6).
T1 sequence (Q9UKL6 1-214): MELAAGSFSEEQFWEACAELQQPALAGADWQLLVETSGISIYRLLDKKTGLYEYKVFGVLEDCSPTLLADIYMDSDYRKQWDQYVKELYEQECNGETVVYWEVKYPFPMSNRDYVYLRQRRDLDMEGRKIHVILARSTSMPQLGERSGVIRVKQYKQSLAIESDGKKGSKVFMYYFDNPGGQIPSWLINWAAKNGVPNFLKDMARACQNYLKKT
In words: Displacement assay of PC-TP using pyrene-labeled PC. The class given is binding. The method, then:
Competition between the small molecule inhibitors and fluorescent pyrene-labeled phosphatidylcholine (PyrPC) for binding to PC-TP was measured using Pyr-PC fluorescent vesicles quenched with tetracyanoquinodimethane (TCNQ) (Lemmetyinen H. et al. 1989). Upon mixing of quenched Pyr-PC vesicles with purified recombinant PC-TP, the rise in Pyr-PC fluorescence reflects binding of fluorescently labeled phosphatidylcholine molecules to the active site of PC-TP. If the small molecule inhibitors enter the active site and prevent binding of phosphatidylcholine to PC-TP by competing the Pyr-PC, this should reduce the observed increase in Pyr-PC fluorescence.
The fluorescence of PyrPC monomer was measured at 392 nm on SpectraMax M5 plate-reader with excitation was set at 345 nm. Pyrene-labeled PC vesicles contained PyrPC, egg PC, and TCNQ in a molar ratio of 40:20:60. For PC and PyrPC competition assays, we used unlabeled PC vesicles composed of egg PC and TCNQ in a molar ratio of 55:45 or PC vesicles of varied lipid concentrations and PyrPC vesicles quenched with TCNQ (55:45). […] To determine the affinity of eggPC compared to PyrPC, we varied the concentration of egg PC in the assay as follows: 5, 11, 22, 27, 33, and 44 μM, and a fixed amount of PyrPC (44 μM). […] In the displacement assay, the increase in pyrene monomer fluorescence (ΔF) is proportional to the amount of [Pyr], pyrene-labeled PC bound to PC-TP. The maximal fluorescence increase (ΔFmax) at pyrene monomer emission peak (˜380-394 nm) is observed in the absence of inhibitor ([inh]=0) or unlabeled lipid ([PC]=0). The fluorescence reading of wells with PyrPC vesicles alone and Pyr-PC vesicles with inhibitor (highest background fluorescence) were used as control and subtracted as background.
As described in Van Paridon et al. 1987, by plotting ΔF as a function of ΔF·[inh]/[Pyr] […] Therefore, Krel (Compound 4/PC) can be calculated as Krel (Compound 4/PyrPC)/Krel (PC/PyrPC)=0.22.

The target in test [2] is T2, PC-TP (Homo sapiens, UniProt Q9UKL6).
T2 sequence (Q9UKL6 1-214): T1 sequence (Q9UKL6 1-214)
Description: PC-TP inhibition assay (Wagle et al. method). Type of test: biochemical. As to conditions: Table 1, concentration value. The method, then:
(§1) The compounds in Table 1 and 2 were assayed for their ability to inhibit PC-TP and StarD10, respectively, using a known assay method (see Wagle et al., 2008. Anal. Biochem. 383:85-92, which is incorporated herein by reference in its entirety). Further, certain compounds were also tested for their ability to inhibit StarD7 (see Table 2).

Test [3] addresses T3, StarD10 (Homo sapiens, UniProt Q9Y365).
T3 sequence (Q9Y365 1-291): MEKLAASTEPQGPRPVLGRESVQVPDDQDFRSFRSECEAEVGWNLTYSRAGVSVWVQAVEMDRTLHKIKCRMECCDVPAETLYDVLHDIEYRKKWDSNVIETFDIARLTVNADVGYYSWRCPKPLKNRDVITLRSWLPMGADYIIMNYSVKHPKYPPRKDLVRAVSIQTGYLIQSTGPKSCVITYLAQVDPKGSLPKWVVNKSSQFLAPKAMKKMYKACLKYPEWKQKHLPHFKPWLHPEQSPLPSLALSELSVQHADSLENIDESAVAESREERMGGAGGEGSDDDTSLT
Description: StarD10 inhibition assay. Type of test: biochemical. How it is done:
as §1

For test [4], the system named is insulin signaling pathway in cultured primary human hepatocytes. Description: Activation of insulin signaling pathway in primary human hepatocytes (immunoblot). The class given is cell-based. As to conditions: serum starved hepatocytes, 60 minute exposure, doses of 0.05 and 0.10 μM, no insulin. How it is done:
Cultured primary human hepatocytes (commercially obtained) were serum starved overnight followed by 60 minute exposure to A) Compound 4 or B) Compound 16 at the indicated concentrations. Inhibitors were dissolved in DMSO. Negative controls included Control (no additions) and DMSO alone. The positive control included DMSO plus insulin (50 nM) for 30 minutes. Cells were harvested and lysates were subjected to immunoblot analyses using antibodies, as indicated.
Background: A western blot detects proteins with antibodies after separation by electrophoresis.

Test [5] has as its target T4, StarD7 (Homo sapiens, UniProt Q9NQZ5).
T4 sequence (Q9NQZ5 78-370): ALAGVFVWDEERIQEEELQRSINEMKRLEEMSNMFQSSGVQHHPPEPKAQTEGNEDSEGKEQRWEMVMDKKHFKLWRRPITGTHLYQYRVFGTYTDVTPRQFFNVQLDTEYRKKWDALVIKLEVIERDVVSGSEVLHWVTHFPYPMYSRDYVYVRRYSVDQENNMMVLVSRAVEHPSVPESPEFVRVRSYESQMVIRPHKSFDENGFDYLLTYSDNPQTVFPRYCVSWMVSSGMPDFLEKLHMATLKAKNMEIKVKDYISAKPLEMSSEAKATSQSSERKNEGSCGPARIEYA
Description: StarD7 inhibition assay. The class given is biochemical. The method, then: as §1

For test [6], the target named is T5, purified recombinant His-tag PC-TP (Homo sapiens, UniProt Q9UKL6).
T5 sequence (Q9UKL6 1-214): T1 sequence (Q9UKL6 1-214)
In words: Surface plasmon resonance binding to immobilized PC-TP. As to conditions: Biacore 3000, CM5 chip, 150 s injection. The method, then:
Compound 8 was injected into a Biacore 3000 surface plasmon resonance instrument with purified recombinant His-tag PC-TP immobilized to a carboxymethyl dextran 5 ([…]) chip for 150 s and allowed to dissociate. Each sensogram was overlaid and zeroed on the y-axis to the average baseline before injection. The start injection time for each sample was set to zero on the x-axis (see FIG. 2). The KD value was 5.0 μM.
(Surface plasmon resonance follows binding to a sensor surface in real time, without labels.)

Take `Cc1cc(C)nc(NS(=O)(=O)c2ccc(NC(=O)NC(=O)c3ccc(Cl)cc3Cl)cc2)n1` [Compound 4, 2,4-dichloro-N-(4-(N-(4,6-dimethylpynmidin-2-yl)sulfamoyl)phenylcarbamoyl) benzamide]: in test [1] (calculated as Krel (Compound 4/PyrPC)/Krel (PC/PyrPC)), the “Krel (Compound 4/PC)” value is reported as 0.22. In test [1] (increasing inhibitor concentration), the “Effect on pyrene monomer fluorescence (Pyr-PC binding to PC-TP)” value is reported as “diminishing fluorescence of pyrene monomer”. In addition, in test [1] (inhibitor 5-75 μM, PyrPC 36 μM, PC-TP 300 nM, averaged from multiple experiments), the “Krel (Compound 4/PyrPC), relative affinity constant” value was 1.1+/−0.36. For the same compound, the IC50 (usually the concentration that inhibits the measured activity by half) was 4.1 µM in test [2], 12 µM in test [3] and 63 µM in test [5]. In addition, the “Activation of insulin signaling” value in test [4] was “activated insulin signaling”.
Regarding `Cc1cc(C)nc(NS(=O)(=O)c2cccc(NC(=O)NC(=O)c3ccc(Cl)cc3Cl)c2)n1` [Compound 8, 2,4-dichloro-N-(3-(N-(4,6-dimethylpyrimidin-2-yl)sulfamoyl)phenylcarbamoyl) benzamide], the results for the IC50 in test [2] and in test [3] were 6.5 µM and 14 µM, respectively. In addition, in test [6], the Kd (commonly the concentration at which binding is half-saturated) was determined as 5 µM.
With `O=C(Nc1cc(Cl)cc(Cl)c1)C(Sc1cccc[n+]1[O-])c1ccccc1` (centres unmarked) [Compound 16, 2-(2-(3,5-dichlorophenylamino)-2-oxo-1-phenylethylthio)pyridine 1-oxide], the IC50 in test [2] stood at 3.6 µM; in test [3], 20 µM; in test [5], 66 µM. Also, the “Activation of insulin signaling” value in test [4] was “activated insulin signaling”.
